A short description of series [1]: AUC (infinity) in rat at 23.7 mg/kg, po and measured up to 24 hrs by LC/MS analysis. Format: ADME, organism-based. Also noted: dose 23.7 mg/kg, route oral, time infinity. The following applies: in vivo.
Series [2] is described as follows: Oral bioavailability in rat at 23.7 mg/kg and measured up to 24 hrs by LC/MS analysis. The format is ADME, organism-based. The following applies: in vivo.
Series [3] relates to Plasmodium falciparum. As to the kind of experiment: Antimalarial activity against Plasmodium falciparum K1 infected in human erythrocytes assessed as reduction in [3H]-hypoxanthine incorporation incubated for 48 hrs followed by addition of [3H]-hypoxanthine and measured after 24 hrs by liquid scintillation counting method. Format: functional, organism-based.
Series [4] concerns Plasmodium falciparum. Description: Antimalarial activity against Plasmodium falciparum TM91C235 infected in human erythrocytes assessed as reduction in [3H]-hypoxanthine incorporation incubated for 48 hrs followed by addition of [3H]-hypoxanthine and measured after 24 hrs by liquid scintillation counting method. Format: functional, organism-based.
For series [5], the system named is Plasmodium berghei. Description: Antimalarial activity against Plasmodium berghei infected in NMRI mouse assessed as reduction in parasite growth at 10 mg/kg, po administered daily for 3 consecutive days by flow cytometric analysis relative to control. The format is functional. On the set-up: scale not given: the % may be the effect or the level left. (In general: Flow cytometry measures light scatter and fluorescence of single cells or particles in a stream.)

The test system of series [6] is Plasmodium berghei. Description: Antimalarial activity against Plasmodium berghei infected in NMRI mouse assessed as reduction in parasite growth at 30 mg/kg, po administered daily for 3 consecutive days by flow cytometric analysis relative to control. Format: functional. Also noted: scale not given: the % may be the effect or the level left.
In series [7] the test system is Plasmodium berghei. Description: Antimalarial activity against Plasmodium berghei infected in NMRI mouse assessed as reduction in parasite growth at 50 mg/kg, po administered daily for 3 consecutive days by flow cytometric analysis relative to control. The format is functional. On the set-up: scale not given: the % may be the effect or the level left.
For series [8], the system named is Plasmodium berghei. Description: Antimalarial activity against Plasmodium berghei infected in NMRI mouse assessed as mean survival days at 10 mg/kg, po administered once and measured up to 30 days. The format is functional.
The subject of series [9] is Plasmodium berghei. As to the kind of experiment: Antimalarial activity against Plasmodium berghei infected in NMRI mouse assessed as mean survival days at 30 mg/kg, po administered once and measured up to 30 days. Format: functional.
Series [10] in a line: Clearance in Wistar Hannover rat at 5 mg/kg, iv by LC-MS/MS analysis. The following applies: in vivo. Format: ADME, organism-based.
Series [11] in a line: Half life in Beagle dog at 1 mg/kg, iv by LC-MS/MS analysis. The following applies: in vivo.
Series [12] is described as follows: Cmax in Wistar Hannover rat at 10 mg/kg, po by LC-MS/MS analysis. Format: ADME, organism-based. Also noted: dose 10 mg/kg, route oral. The following applies: in vivo.
A short description of series [13]: Oral bioavailability in Beagle dog at 3 mg/kg by LC-MS/MS analysis. The format is ADME, organism-based, Canis lupus familiaris. The conditions noted are these: in vivo.
The nature of series [14]: Cytotoxicity against human HepG2 cells assessed as reduction in cell viability after 4 days by XTT assay. The format is cell-based. (Formazan colour is commonly taken as a measure of viable cells.)
Series [15] is described as follows: Metabolic stability in human assessed as paren compound remaining at […], po by LC-MS/MS analysis. The format is ADME, organism-based. The conditions noted are these: in vivo.
Series [16] is described as follows: Half life in human at 30 mg/kg, po. The conditions noted are these: in vivo.
In series [17] the test system is Plasmodium falciparum. As to the kind of experiment: Antimalarial activity against Plasmodium falciparum infected in human assessed as parasite clearance time at 30 mg/kg, po. Format: functional.
Series [18] relates to Plasmodium falciparum. Description: Antimalarial activity against Plasmodium falciparum infected in human assessed as median clearance time at 30 mg/kg, po administered daily for 3 consecutive day and measured on day 5. The format is functional.
The next series in a line: in vivo. The following applies: mouse, po, 24.6 mg/kg.
Series [19] in a line: AUC (0 to 24 hrs) in human at 300 mg, po by LC-MS/MS analysis. The following applies: in vivo.

The values below come from ChEMBL document CHEMBL4376815, “The Development Process for Discovery and Clinical Advancement of Modern Antimalarials” (J Med Chem, 2019).

Broadly, the AUC(0-inf) is the area under the concentration-time curve extrapolated to infinity. One may read the bioavailability as the share of a dose that reaches the circulation, judged against a reference dose that is usually intravenous. Usually EC50 stands for the concentration at which the effect is half-maximal. Usually clearance stands for the rate of elimination divided by the concentration. As a reminder, the half-life is how long it takes for the measured level to halve. The Cmax is the maximum level reached in the sampled fluid or tissue. For orientation: CC50 means the concentration at which the toxic effect on the cells reaches its halfway point. A word on the AUC(0-t): it is the area under the concentration-time curve up to a stated or last time point.

Description for in vivo: Half life in mouse at 24.6 mg/kg, po and measured up to 24 hrs by LC/MS analysis

In series [1], `C[C@H]1Cc2c([nH]c3cc(Cl)c(F)cc23)[C@@]2(N1)C(=O)Nc1ccc(Cl)cc12` [CIPARGAMIN] yielded an AUC(0-inf) of 524 µM·h. Moreover, the figures for the bioavailability in series [2] and in series [13] were 100% and 68%, respectively. Also, the EC50 with Plasmodium falciparum [3] and in the series on Plasmodium falciparum [4] was 0.5 to 1.4 nM throughout. The Activity came to 50% with Plasmodium berghei [5], 90% in the series with Plasmodium berghei [6] and 100% with Plasmodium berghei [7]. Besides, the MSD with Plasmodium berghei [8] was 13.3 days; in the series with Plasmodium berghei [9] it was 24.1 days. In addition, the clearance in series [10] is 4.2 mL/min/kg. Further, the results for the half-life in [11] and in [16] were 10.9 h and 20.8 h, respectively. Also, in [12], the peak level (Cmax) was 1210 ng/mL. In series [14], the CC50 at 96 h was more than 10000 nM. For the same compound, the Stability in series [15] is 75%. The figures for the Time in the series with Plasmodium falciparum [17] and with Plasmodium falciparum [18] were 10 h and 16 h, respectively. Besides, the half-life at 24 h in “in vivo” is 10 h. In addition, the AUC(0-t) at 24 h in [19] is 36000 ng·h/mL.
